Assay results as given in paper PMC4624771, “Oriented Cell Division in the C. elegans Embryo Is Coordinated by G-Protein Signaling Dependent on the Adhesion GPCR LAT-1” (PLoS Genetics, 2015).

Experiments:
LAT-1 = test: Peptide-stimulated cAMP accumulation assay, lat-1-transfected COS-7 cells; type: cell-based, C. elegans; conditions: 1 mM peptide; for agonistic activity at LAT-1 in vitro (cAMP levels), in words: lat-1-transfected COS-7 cells, cAMP accumulation assay
Description: Fig 3 An agonistic sequence C-terminal of the GPS cleavage site activates LAT-1 in vitro. (A) Evolutionary conservation of the putative agonistic region C-terminal of the GPCR proteolytic site (GPS) cleavage site in different latrophilin homologs. The GPS is part of the GPCR-autoproteolysis inducing (GAIN) domain, a characteristic feature of most aGPCRs which is located N-terminal of the first transmembrane domain (TM1). Sequences were retrieved from NCBI/GenBank and aligned utilizing Jalview 2 [36]. (B, F) Peptide-stimulated cAMP response of LAT-1 (B) and rat LPHN1 (F). COS-7 cells transfected with 0.2 μg empty control vector (pcDps) or plasmid encoding the latrophilin homolog, respectively, were stimulated with 1 mM peptide and cAMP levels were measured by cAMP accumulation assay. A mutated peptide served as negative control (CMP12/RMP13). […] Basal cAMP levels (empty vector, no peptide) are 5.3 ± 1.3 nM. Data are given as means ± SD of five independent experiments, each performed in triplicate. * p < 0.05; ** p < 0.01. (C) LPHN1 is expressed in COS-7 cells. Cells were transfected with 500 ng/well of empty vector (pcDps) or plasmid encoding either rat LPHN1, human P2Y12, or human V2R. […] Expression of the human vasopressin type 2 receptor V2R is shown as a comparison. The non-specific OD value (empty vector) was 0.06 ± 0.03 (set 0%) and the OD value of P2Y12 was 1.28 ± 0.12 (set 100%). Data are given as means ± SD of at least three independent experiments. *** p < 0.001. […] To analyze functional Gi coupling, the chimeric Gαqi4 protein was applied to reroute a potential Gi-protein pathway to the […]. For each assay, 1.5 μg/well of plasmid encoding LPHN1 was transfected (for Gi-protein coupling, co-transfection with 100 ng of chimeric Gαqi4 protein was performed). No activation of any of the signaling pathway was observed. Basal IP levels are: 220 ± 34 CPM/well (empty vector); 234 ± 39 CPM/well (empty vector + Gαqi4). Data are given as means ± SD of three independent experiments, each performed in triplicate. n.s. not significant. (E) LPHN1 couples to Gαs. COS-7 cells were transfected with increasing amounts of empty control vector (pcDps) or plasmid encoding either rat LPHN1, human V2R or human P2Y12, and cAMP levels were measured after 48 hours. cAMP concentrations are shown as fold change over empty control vector, basal cAMP levels: 6.2 ± 2.3 nM (200 ng); 6.1 ± 2.5 nM (300 ng); 5.1 ± 2.6 nM (400 ng); 6.1 ± 4.5 nM (500 ng). The Gs-protein coupling V2R served as positive and the predominantly Gi-protein coupling P2Y12 as negative control. Data are given as means ± SD of three independent experiments, each performed in triplicate. *** p < 0.001.
For functional assays, COS-7 cells were transiently transfected. To determine total as well as cell surface expression of receptors carrying N-terminal HA and C-terminal FLAG tags, indirect cellular enzyme-linked immunosorbent assays (ELISA) were employed. cAMP concentrations were measured using the ALPHAScreen cAMP assay kit (PerkinElmer Life Sciences) according to the manufacturer's protocol. IP formation was determined as previously described. Assay data was analyzed with GraphPad Prism version 5.0 (GraphPad Software). Statistics were performed using a two-way ANOVA in combination with Bonferroni as post-hoc test. For details see Supporting Experimental Procedures.
COS-7 cells were grown in Dulbecco's Modified Eagle Medium (DMEM) supplemented with 10% fetal bovine serum, 100 U/ml penicillin and 100 μg/ml streptomycin at 37°C and 5% CO2 in a humidified atmosphere. […]

[1] = test system: lat-1 mutant nematodes expressing lat-1 with a lat-2 GPS; test: Peptide-mediated rescue of lethality in lat-1 mutants expressing lat-1 with a lat-2 GPS; type: in vivo, C. elegans; conditions: mothers and subsequently offspring soaked in 0.1 mM peptide, n ≥ 350
Protocol: Fig 4 The agonistic sequence of LAT-1 triggers receptor function in vivo. (A) Domain architecture of LAT-1 with an exchange of the GPS for the LAT-2 GPS. (B) Peptide-mediated rescue of lethality in lat-1 mutant nematodes expressing lat-1 with a lat-2 GPS. Mothers and subsequently offspring were soaked in 0.1 mM of peptide and individuals reaching adulthood were scored (n ≥ 350). […] Negative controls: mutated peptide CMP12 and a peptide derived from rat LPHN1 (RP13). Data are shown as means ± SD, **p<0.01; ***p<0.001. (C) Transgenically expressed lat-1 ^T530A/F532A::gfp exclusively rescues fertility defects of lat-1 mutants. Nematodes expressing lat-1 ^T530A/F532A::gfp in a lat-1 mutant background display lethality but no fertility defects compared to a lat-1::gfp transgenic control. (D) Expression and protein localization of lat-1::gfp (top) is indistinguishable from lat-1 ^T530A/F532A::gfp (bottom). Arrows indicate expression.
All compounds were obtained from Sigma Aldrich. Forskolin was dissolved in DMSO to 10 mM, 3-isobutyl-1-methylxanthine (IBMX) in Dent´s buffer to 10 mM, 8-bromoadenosine 3′,5′-cyclic monophosphate (8-Br-cAMP) in 1 N ammonium hydroxide to 250 mM and 2',5'-dideoxyadenosine (ddA) was diluted in DMSO to 100 mM prior to final dilution in Dent´s buffer. Peptides were synthesized (see Supporting Experimental Procedures) and dissolved in DMSO to 100 mM prior to final dilution in M9. Worms were incubated in 80 μM forskolin, 10 mM IBMX, 0.25 mM 8-Br-cAMP, 1 mM ddA or 0.1 mM peptide solution, respectively, containing E. coli OP50.
The lethality rescue assay was conducted as previously described. Fifty L4 hermaphrodites were transferred into wells of a 72-well flat-bottom Terasaki plates (Greiner Bio-One) containing OP50 and allowed to lay eggs for 24 hours at 22°C. Five to ten eggs were transferred into fresh wells with corresponding solutions and incubated at 22°C. The number of dead/surviving embryos was scored 24 hours later, the number of adult animals 48 hours later on an inverted microscope. Data were examined with an unpaired two-tailed t test for each genotype and condition.

lat-1(ok1465) nematodes = test: Lethality rescue assay in lat-1 mutant nematodes; type: in vivo; conditions: L4 larvae and subsequently embryos incubated; forskolin 80 μM, IBMX 10 mM, 8-Br-cAMP 0.25 mM
Description: Fig 2 Division plane defects in lat-1 mutant embryos are rescued by elevation of intracellular cAMP via a Gs protein/adenylyl cyclase pathway. […] In wild-type embryos treated with the RNAi control vector L4440 ABal divides in an anterior-posterior direction (A) whereas in treated lat-1 mutants the division plane is almost perpendicular to MS (B). gsa-1 RNAi by feeding over two generations leads to a turning of the F2 ABal division plane in a direction similar to that in lat-1 mutants (C). F2 lat-1; gsa-1(RNAi) embryos show a similar ABal division plane to lat-1 mutants (D). (E) Cell division plane angles of ABal relative to MS after knockdown of gsa-1. […] The vector L4440 served as negative control. Data are shown as means ± SD. * p < 0.05; *** p < 0.001; n ≥ 11. (F) cAMP levels are reduced in lat-1 embryos compared to a control wild-type population. cAMP levels were measured after lysis (15 μg protein) by cAMP accumulation assay. Assays were performed in three independent experiments, data are given as means ± SD. ** p < 0.01. (G) Rescue of developmental lethality in lat-1 nematodes treated with compounds promoting cAMP accumulation: forskolin (80 μM), IBMX (10 mM) and 8-Br-cAMP (0.25 mM). Mothers and subsequently offspring of wild-type and lat-1 individuals were incubated and individuals reaching adulthood were scored (n = 410). As controls, nematodes were incubated in solvent without drug (mock). Data are shown as means ± SD. * p < 0.05; ** p < 0.01; *** p < 0.001. (H) Forskolin increases cAMP levels in C. elegans embryos and adults. lat-1 mutants and subsequently embryos were incubated with 80 μM forskolin. […] As controls, nematodes were treated with 0.8% DMSO lacking forskolin (mock). Basal cAMP levels of mock control are: 0.70 ± 0.14 nM (wild-type embryos); 0.37 ± 0.19 nM (lat-1 embryos); 1.9 ± 0.7 nM (wild-type adults); 2.3 ± 0.8 nM (lat-1 adults). Assays were performed in three independent experiments, data are given as means ± SD. * p < 0.05; ** p < 0.01; *** p < 0.001. (I-L) Relative positions of ABala, ABalp, and MS in an AB^4 embryo. Schematic representation (top) and DIC microscopy (bottom), scale bars = 10 μm. In wild-type embryos (I) and embryos incubated in 80 μM forskolin for 120 minutes (K) ABal divides in an anterior-posterior direction with only ABalp forming an interface with MS. In lat-1 mutants the division plane is skewed resulting in ABala and ABalp contacting MS (J). lat-1 embryos treated with 80 μM forskolin for 120 minutes display wild-type division and cell interfaces (L). (M) Arrangement of blastomeres in the 12-cell stage embryo. […] The right-hand side is two views of the mean positions of the blastomeres. The spheres are enlarged to convey an impression of the contacts. Forskolin turns the ABal spindle in the mutant in a more anterior direction. (N) Cell division plane angles of ABal relative to MS of untreated wild-type/lat-1 controls and wild-type/lat-1 embryos after incubation of mothers and subsequently embryos for 48 hours in 80 μM forskolin. Upon forskolin treatment, mutant embryos display a wild-type division angle. As controls, nematodes were treated with 0.8% DMSO lacking forskolin (mock). Data are shown as average angles ± SD, *** p < 0.001; n ≥ 12. (O) Forskolin reduces the contact length of ABala to MS. Ratio of relative contact lengths of ABala to MS and ABalp to MS cells lat-1 embryos untreated (control, n = 10) and after incubation of mothers and subsequently embryos for 48 hours in 80 μM forskolin (n = 11). […] Data were calculated from pixel analyses utilizing DIC images and are shown as means ± SD, ** p < 0.01.
All compounds were obtained from Sigma Aldrich. Forskolin was dissolved in DMSO to 10 mM, 3-isobutyl-1-methylxanthine (IBMX) in Dent´s buffer to 10 mM, 8-bromoadenosine 3′,5′-cyclic monophosphate (8-Br-cAMP) in 1 N ammonium hydroxide to 250 mM and 2',5'-dideoxyadenosine (ddA) was diluted in DMSO to 100 mM prior to final dilution in Dent´s buffer. […]

| Compound | agonistic activity at LAT-1 in vitro (cAMP levels), in words (LAT-1) | rescue of lethality (individuals reaching adulthood) ([1]; means ± SD, untreated controls 26 ± 7%) [%] | rescue of tissue polarity phenotype / activity in vivo, in words [1] | effect on embryonic lethality of lat-1 worms, in words (lat-1(ok1465) nematodes) | increase of cAMP concentration above basal levels (LAT-1; lat-1-transfected COS-7 cells (0.2 μg plasmid), ALPHAScreen cAMP assay, means of five independent experiments, each in triplicate) [fold] |
| --- | --- | --- | --- | --- | --- |
| CP13: peptide of 13 amino acids comprising the LAT-1 sequence C-terminal of the GPS cleavage site (THFAVLMDVRGHD) | increased cAMP levels | 46 ± 12 | efficiently rescued | – | – |
| CP9: peptide comprising the LAT-1 sequence C-terminal of the GPS cleavage site (THFAVLMDV) | no agonistic activity in vitro | – | not display any activity in vivo | – | – |
| CMP12: CP12-derived peptide with positions +1 (T530) and +3 (F532) mutated to alanine (AHAAVLMDVRGH) | did not display any activity | – | not display any activity in vivo | – | – |
| CP10: peptide comprising the LAT-1 sequence C-terminal of the GPS cleavage site (THFAVLMDVR) | no agonistic activity in vitro | – | not display any activity in vivo | – | – |
| CC(C)Cn1c(=O)n(C)c(=O)c2[nH]cnc21 [IBMX, 3-isobutyl-1-methylxanthine] | – | – | – | amelioration of embryonic lethality | – |
| Nc1ncnc2c1nc(Br)n2[C@@H]1O[C@@H]2COP(=O)(O)O[C@H]2[C@H]1O [8-Br-cAMP, 8-bromoadenosine 3′,5′-cyclic monophosphate] | – | – | – | amelioration of embryonic lethality | – |
| CP12: peptide of 12 amino acids comprising the LAT-1 sequence C-terminal of the GPS cleavage site (THFAVLMDVRGH) | increased cAMP levels | – | efficiently rescued | – | 1.6 |
| CP14: peptide comprising the LAT-1 sequence C-terminal of the GPS cleavage site (THFAVLMDVRGHDL) | no agonistic activity in vitro | – | not display any activity in vivo | – | – |
